Experimental findings from patent publication US20040126369A1, “Delivery of peroxide-generating enzymes to the vaginal tract” (priority 2002, published 2004) are described below.

Common to all, as to type: biochemical
A short description of data set [1]: Hydrogen peroxide generation by enzymes on substrates. Particulars: for μg of H2O2 produced/ml: one unit enzyme, pH 6.3, 37° C., 12 h. How it is done: Seven enzymes, including glucose oxidase, glycerol-3-phosphate oxidase, xanthine oxidase, cholesterol oxidase, galactose oxidase, alcohol oxidase and pyruvate oxidase, were tested for hydrogen peroxide generation on five substrates, including tampon material (e.g., cellulosic materials, including, but not limited to, cotton and rayon fibers), polydextran, carboxymethylcellulose, chitosan, and poly (vinyl alcohol).
One unit of each enzyme was combined with 0.05 ml of a saturated solution (in distilled, deionized water) of each substrate in a test tube and diluted to 0.5 ml with buffer (0.5 M Tris buffer, pH adjusted to 6.3). In the case of insoluble substrates, a piece (approximately 0.25 g) of the substrate was placed in the test tube. The tubes were placed in an oscillating incubator at 37° C. After 12 h, the tubes were removed and the solution was assayed for H2O2 level by an established method (Graf, E. and Penniston, J. T., “Method for Determination of Hydrogen Peroxide, With Its Application Illustrated by Glucose Assay,” Clinical Chemistry, 26, 658-660 (1980)). The results are depicted in Table 2 in μg H2O2 per ml. (For production of hydrogen peroxide over time, see FIG. 1.)

Data set [2] in a line: H2O2 production by alcohol oxidase on modified pva/polycap polymer versus unmodified poly (vinyl alcohol). Particulars: direct comparison (data not shown).
Data set [3] can be described thus: Self-limiting features of peroxide generation, alcohol oxidase-carboxymethylcellulose. Particulars: carboxymethylcellulose substrate, 37° C. As to the method:
FIG. 4 is a graphical representation of the effect of pH on hydrogen peroxide production. Depicted is hydrogen peroxide production resulting from alcohol oxidase activity with carboxymethylcellulose as a function of pH (with no initial peroxide added, after agitation for 8 hours at 37° C. in normal atmosphere).
FIG. 5 is a graphical representation of the effect of initial hydrogen peroxide (H2O2) on H2O2 production. Depicted is hydrogen peroxide production resulting from alcohol oxidase activity with carboxymethylcellulose as a function of initial hydrogen peroxide added (at pH 6.3, after agitation for 8 hours at 37° C. in normal atmosphere).
One of the enzyme-substrate combinations, alcohol oxidase-carboxymethylcellulose, was further studied. One unit of enzyme was combined with 0.05 ml of 2.5% carboxymethyl cellulose in a test tube and diluted to 0.5 ml with buffer of appropriate pH. The tubes were placed in an oscillating incubator at 37° C. After 8 hours, the tubes were removed and the solution was assayed for H2O2 level.

Setting [4] is: substrate Tampon Material (cotton).

Turning to alcohol oxidase, the “level of H2O2 production compared with the other enzymes” value in data set [1] (across the five substrates of Table 2) is listed as “highest level of H2O2 production on most of the substrates”. The “μg of H2O2 produced/ml” value was found to be 103.96 μg H2O2 per ml in data set [1] (substrate CM Cellulose); 9.38 μg H2O2 per ml in data set [1] (substrate Chitosan); 53.20 μg H2O2 per ml in data set [1] (substrate Poly(vinyl alcohol)); 92.89 μg H2O2 per ml in data set [1] (substrate Polydextran); 97.84 μg H2O2 per ml in data set [1] (setting [4]). Besides, the “more H2O2 produced on modified pva/polycap polymer than on unmodified poly (vinyl alcohol)” value in data set [2] was found to be 22%. Also, the “enzyme activity as a function of pH” value in data set [3] (8 hours, FIG. 4) is reported as “decreased with decreasing pH”. Further, the “hydrogen peroxide production at pH 6.3” value in data set [3] (pH 6.3, 8 hours) was “high levels of hydrogen peroxide”. For the same substance, in data set [3] (pH 6.3, 8 hours, FIG. 5), the “effect of initial hydrogen peroxide on enzyme activity” value is listed as “deactivated in the presence of high concentrations of hydrogen peroxide”.

For cholesterol oxidase, the “μg of H2O2 produced/ml” value in data set [1] (substrate CM Cellulose) is 4.01 μg H2O2 per ml; in data set [1] (substrate Chitosan) it was 14.09 μg H2O2 per ml; in data set [1] (substrate Poly(vinyl alcohol)) it was 5.13 μg H2O2 per ml; in data set [1] (substrate Polydextran), 3.89 μg H2O2 per ml; in data set [1] (setting [4]) it was 4.92 μg H2O2 per ml.

galactose oxidase: the “μg of H2O2 produced/ml” value in data set [1] (substrate CM Cellulose) amounted to 4.43 μg H2O2 per ml; in data set [1] (substrate Chitosan), 8.06 μg H2O2 per ml; in data set [1] (substrate Poly(vinyl alcohol)), 4.34 μg H2O2 per ml; in data set [1] (substrate Polydextran), 3.89 μg H2O2 per ml; in data set [1] (setting [4]), 6.45 μg H2O2 per ml.

For glucose oxidase, the “μg of H2O2 produced/ml” value in data set [1] (substrate CM Cellulose) came to 3.31 μg H2O2 per ml; in data set [1] (substrate Chitosan) it was 10.66 μg H2O2 per ml; in data set [1] (substrate Poly(vinyl alcohol)), 4.47 μg H2O2 per ml; in data set [1] (substrate Polydextran) it was 54.69 μg H2O2 per ml; in data set [1] (setting [4]), 4.43 μg H2O2 per ml.

Regarding glycerol-3-phosphate oxidase, the “μg of H2O2 produced/ml” value in data set [1] (substrate CM Cellulose) was 3.97 μg H2O2 per ml; in data set [1] (substrate Chitosan), 9.01 μg H2O2 per ml; in data set [1] (substrate Poly(vinyl alcohol)) it was 3.85 μg H2O2 per ml; in data set [1] (substrate Polydextran) it was 4.01 μg H2O2 per ml; in data set [1] (setting [4]) it was 4.84 μg H2O2 per ml.

With pyruvate oxidase, the “μg of H2O2 produced/ml” value in data set [1] (substrate CM Cellulose) came out at 9.84 μg H2O2 per ml; in data set [1] (substrate Chitosan), 11.94 μg H2O2 per ml; in data set [1] (substrate Poly(vinyl alcohol)) it was 3.85 μg H2O2 per ml; in data set [1] (substrate Polydextran) it was 9.75 μg H2O2 per ml; in data set [1] (setting [4]), 6.66 μg H2O2 per ml.

For the substance xanthine oxidase, the “μg of H2O2 produced/ml” value in data set [1] (substrate CM Cellulose) came out at 6.08 μg H2O2 per ml; in data set [1] (substrate Chitosan) it was 10.00 μg H2O2 per ml; in data set [1] (substrate Poly(vinyl alcohol)), 6.00 μg H2O2 per ml; in data set [1] (substrate Polydextran), 5.96 μg H2O2 per ml; in data set [1] (setting [4]), 10.46 μg H2O2 per ml.
